PubChem BioAssay (NCI)
Several values for one entry are separate records, joined by “and”; a condition that tells them apart may be missing. Equal values may be shown once.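 Cells were grown in 96-well plates and exposed to each compound for 48 hours at five concentrations; endpoints were interpolated linearly between bracketing concentrations, or set to the highest concentration if not reached. GI50: concentration for 50% inhibition of growth. TGI: total growth inhibition.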

Experiments:
Assay in all cases: DTP human tumour cell line panel, 48 h
SN12C renal = system: SN12C renal
SK-OV-3 ovarian = system: SK-OV-3 ovarian
SK-MEL-2 melanoma = system: SK-MEL-2 melanoma
SW-620 colon = system: SW-620 colon
HL-60(TB) leukemia = system: HL-60(TB) leukemia
HCT-116 colon = system: HCT-116 colon
ACHN renal = system: ACHN renal
MDA-MB-231 breast = system: MDA-MB-231 breast
MCF7 breast = system: MCF7 breast
A498 renal = system: A498 renal

SMILES | TGI (SN12C renal) | TGI (SK-OV-3 ovarian) [µM] | TGI (SK-MEL-2 melanoma) | TGI (SW-620 colon) | TGI (HL-60(TB) leukemia) [µM] | TGI (HCT-116 colon) [µM] | TGI (ACHN renal) | GI50 (SN12C renal) [µM] | GI50 (SK-OV-3 ovarian) [µM] | GI50 (SK-MEL-2 melanoma) [µM] | GI50 (SW-620 colon) [µM] | GI50 (HL-60(TB) leukemia) [µM] | GI50 (MDA-MB-231 breast) [µM] | TGI (MDA-MB-231 breast) [µM] | GI50 (HCT-116 colon) [µM] | GI50 (MCF7 breast) [µM] | TGI (MCF7 breast) [µM] | GI50 (ACHN renal) [µM] | GI50 (A498 renal) [nM] | TGI (A498 renal) [µM]
CC(=O)c1sc(-c2nc(C)c(C(=O)/C=C\c3ccc(/C=C\C(=O)c4sc(-c5nc(C)c(C(C)=O)s5)nc4C)cc3)s2)nc1C | > 100 µM | > 100 | > 100 µM | > 100 µM | > 100 | > 100 | > 100 µM |  |  |  |  |  |  |  |  |  |  |  |  | 
O=C(Nc1ccc(-c2ccccc2)cc1)C1CCN(S(=O)(=O)c2ccccc2Cl)CC1 | 90.2 µM | > 100 | > 100 µM | > 100 µM | > 100 | > 100 | 57 µM | 26.9 | 57.4 | 49.7 | 82.3 | > 100 | 18.2 | 47.3 | 39.4 | 41.2 | > 100 | 21.9 |  | 
C[C@]12CC[C@H](O)C[C@H]1CC[C@@H]1[C@@H]2CC[C@]2(C)[C@@H](C3=CC(=O)OC3)CC[C@]12O | 0.327 µM | 0.818 | 1.56 µM | 1.57 µM | 0.272 | 0.0663 | 0.825 µM |  |  |  |  | 0.0391 |  | > 62.2 |  |  |  |  | 59.1 | 0.378
COC(=O)/C(C#N)=C1\CCC(O)N1 (stereo unspecified) | > 100 µM | > 100 | > 100 µM | > 100 µM | > 100 | > 100 | > 100 µM |  |  |  |  |  |  |  |  |  |  |  |  | 
COc1cc2ccc3c4cc(OC)c(OC(C)C)cc4cnc3c2cc1OC | > 100 µM | > 100 | > 100 µM | > 100 µM | > 100 | > 100 | > 100 µM |  |  |  |  |  |  |  |  |  |  |  |  | 
C=C1C[C@]23CCC4C(C)(C)C(=O)CC[C@]4(C)C2C[C@H]1C(O)C3=O (stereo partly specified) | > 75 µM | > 75 | > 75 µM | > 75 µM | > 75 |  | > 75 µM |  |  |  |  |  |  |  |  |  |  |  |  | > 75
CCCCOC(=O)NC(=O)c1cn(CCCOC(=O)NCCCCCCNC(=O)OCCCn2cc(C(=O)NC(=O)OCCCC)c(=O)[nH]c2=O)c(=O)[nH]c1=O | > 100 µM | > 100 | > 100 µM | > 100 µM | > 100 | > 100 | > 100 µM |  |  |  |  |  |  |  |  |  |  |  |  | > 100
O=C1CC2C(=O)N(Cc3ccccc3)C1C=C2S(=O)(=O)c1ccccc1 (stereo unspecified) | > 100 µM | > 100 |  | > 100 µM | > 100 | > 100 | > 100 µM |  |  |  |  |  |  |  |  |  |  |  |  | > 100
COC(=O)/C(C=O)=C/Sc1ccccc1 | 42.9 µM | 88.5 | 91.8 µM | > 100 µM | > 100 | > 100 | > 100 µM |  |  |  |  |  |  |  |  |  |  |  |  | 
Nc1ccn(C2(CO)C=C(CO)C(O)C2O)c(=O)n1 (stereo unspecified) | > 25.8 µM | > 25.8 | > 25.8 µM | > 25.8 µM | > 25.8 | > 25.8 | > 25.8 µM |  |  |  |  |  |  |  |  |  |  |  |  | > 25.8
CC1=NN(C(=O)CC(=O)N(C(=O)c2ccccc2Cl)c2ccc(C)cc2)C(=O)C1N=Nc1ccc([N+](=O)[O-])cc1 (stereo unspecified) | > 100 µM | 69.6 | > 100 µM | > 53.6 µM | > 68.8 | 38.6 | > 100 µM |  |  |  |  |  |  |  |  |  |  |  |  | > 100
CC(=O)/C=C/c1ccc(C#Cc2ccccc2)s1 | 31.4 µM | 31.1 | 35.4 µM | 38.1 µM |  | 14.9 | 29.8 µM | 17.1 | 17.3 | 20.5 | 19.4 |  | 15 | 28.2 | 3.67 | 7.6 | 65 | 16.3 |  | 
O=C(Nc1cc(Cl)ccc1Cl)C(=O)C(c1cnc2ccccc2n1)[N+](=O)[O-] (stereo unspecified) | > 100 µM | > 100 |  | > 100 µM | > 100 | > 100 | > 100 µM |  |  |  |  |  |  |  |  |  |  |  |  | > 100
Oc1cn(-c2ccc(Cl)cc2)nc1-c1n[nH]c(=S)n1C1CCCCC1 | > 100 µM | > 44.5 | > 100 µM | > 100 µM |  | 39.8 |  | 2.43 | 0.451 | > 52.3 | 0.475 |  | 2.22 | > 90.7 | 0.612 |  | > 100 |  | 365 | 9.44
CC(C)CCCC(C)[C@H]1CCC2[C@H]3C(CC[C@@]21C)[C@@]1(C)CCC=C[C@]12C[C@@H]2[C@@H]3O (stereo partly specified) | > 100 µM | > 100 |  | > 100 µM | > 100 | > 100 | > 100 µM |  |  |  |  |  |  |  |  |  |  |  |  | > 100
Cc1cc(NS(=O)(=O)c2ccc(Nc3c4ccccc4nc4c(C(=O)NCCN(C)C)cccc34)cc2)no1 | > 100 µM |  |  | > 100 µM | 0.472 | > 100 | 19 µM |  |  |  |  |  |  |  |  |  |  |  |  | 
COc1cccc(-n2c3nc(=O)n(C)c(=O)c-3nc3ccccc32)c1 | 30.8 µM | > 100 | 56 µM | 51.6 µM | 28.2 | > 100 | 47.3 µM |  |  |  |  |  |  |  |  |  |  |  |  | > 100
O=c1[nH]c2cc(Cl)ccc2nc1/C(=N\O)C(O)c1ccc(Cl)cc1Cl (stereo unspecified) | > 100 µM | > 100 |  | > 100 µM | > 100 | > 100 | > 100 µM |  |  |  |  |  |  |  |  |  |  |  |  | 
N.N.N.N.[Cl-].[Co+3].[N-]=[N+]=[N-].[N-]=[N+]=[N-] | > 100 µM | > 100 | > 100 µM | > 100 µM | > 100 | > 100 | > 100 µM | > 100 | > 100 | > 100 | > 100 | 74.3 |  |  | > 100 |  |  | 50.5 | > 100000 | > 100
C[C@@]12CCCc3coc(c31)C(=O)c1cc3c(cc12)C(=O)C=CC3=O | > 1 µM and 38.6 µM | > 100 | > 1 µM and 29 µM | > 1 µM and 20.1 µM | > 100 | > 1 | > 1 µM and 25.4 µM | > 1 | > 100 | > 1 | > 1 | > 1 |  |  |  |  |  | > 1 |  | > 100
C=CCNC(=O)N(CCC)CCCCC(NC(C)=O)C(=O)NCc1ccccc1 (stereo unspecified) | > 100 µM | > 100 | > 100 µM | > 100 µM | > 100 |  | > 100 µM |  |  |  |  |  |  |  |  |  |  |  |  | > 100
